In experiment [1] the test system is A549. Put plainly: cells. The following applies: Homo sapiens.
Description: Cytotoxicity against human A549 cells by SRB method
The test system of experiment [2] is Staphylococcus aureus. Description: Antibacterial activity against Staphylococcus aureus up to 200 ug/ml by microdilution assay. The format is functional, organism-based.
Experiment [3] has as its system K562. Put plainly: Cytotoxicity against human K562 cells up to 200 ug/ml by MTT assay. The format is functional, cell-based.
Experiment [4] has as its target Acetylcholinesterase (Homo sapiens) (UniProt P22303). Put plainly: Inhibition of human AChE up to 200 ug/ml by Ellman's assay.
Experiment [5] deals with A549. Put plainly: Cytotoxicity against human A549 cells up to 200 ug/ml by SRB method. The format is functional, cell-based.
The test system of experiment [6] is Escherichia coli. Put plainly: Antibacterial activity against Escherichia coli up to 200 ug/ml by microdilution assay. The format is functional, organism-based.
For experiment [7], the system named is K562. Description: cells. The following applies: Homo sapiens.
Description: Cytotoxicity against human K562 cells by MTT assay

Activity calls are given as the source filed them. The calls are words filed in the database; no cut-off is given here.

Chain of Acetylcholinesterase (Homo sapiens) (P22303 whole entry): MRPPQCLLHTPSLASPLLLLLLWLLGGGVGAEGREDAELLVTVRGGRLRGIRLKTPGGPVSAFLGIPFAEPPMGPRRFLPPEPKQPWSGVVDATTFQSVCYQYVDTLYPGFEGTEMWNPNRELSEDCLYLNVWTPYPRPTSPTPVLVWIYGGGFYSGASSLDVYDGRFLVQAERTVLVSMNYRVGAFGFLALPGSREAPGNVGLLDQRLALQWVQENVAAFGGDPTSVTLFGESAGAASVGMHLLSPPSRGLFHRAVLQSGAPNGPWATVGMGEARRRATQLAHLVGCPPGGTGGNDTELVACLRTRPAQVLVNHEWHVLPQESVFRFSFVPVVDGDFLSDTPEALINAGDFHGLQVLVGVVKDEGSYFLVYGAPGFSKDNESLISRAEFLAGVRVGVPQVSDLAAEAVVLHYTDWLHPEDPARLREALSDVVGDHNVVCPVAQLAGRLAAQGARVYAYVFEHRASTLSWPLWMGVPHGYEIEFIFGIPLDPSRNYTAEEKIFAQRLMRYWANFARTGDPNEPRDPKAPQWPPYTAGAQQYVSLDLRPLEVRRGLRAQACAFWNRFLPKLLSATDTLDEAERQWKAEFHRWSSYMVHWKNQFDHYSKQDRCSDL

On to `O=c1[nH]cc(F)c(=O)[nH]1` [FLUOROURACIL], for which the IC50 in experiment [1] turned out to be 20.8 µM.
On to `C/C(=C\C[C@@]12CCN(C)[C@@H]1[N+](C)(C)c1ccccc12)C(=O)[O-]`, for which the outcome in experiment [2], in experiment [3], in experiment [4], in experiment [5] and in experiment [6] was inactive.
`C/C(=C\C[C@@]1(c2ccccc2N(C)C)CCN(C)C1=O)C(=O)O`: the outcome in experiment [2], in experiment [3], in experiment [4], in experiment [5] and in experiment [6] was inactive.
Compound `COc1cccc2c1C(=O)c1c(O)c3c(c(O)c1C2=O)C[C@@](O)(C(=O)CO)C[C@@H]3O[C@H]1C[C@H](N)[C@H](O)[C@H](C)O1` [DOXORUBICIN] had an IC50 in experiment [7] of 0.32 µM.
Take `C/C(=C\C[C@@]12CCN(C)[C@@H]1[N+](C)(C)c1ccccc12)C(=O)N[C@@H](Cc1ccccc1)C(=O)[O-]`: the result in experiment [2], in experiment [3], in experiment [4], in experiment [5] and in experiment [6] was inactive.
